The values below are quoted from earlier work in patent US9848955B2, “Resorbable pouches for implantable medical devices” (TYRX Inc., priority 2006, dated 2017).

This series concerns myofibroblast formation. As to conditions: animal studies of capsular contracture with breast implants [Ajmal et al. (2003)].

On to `O=S(=O)([O-])CCS.[Na+]` [Mesna, sodium 2-mercaptoethane sulfonate], for which the myofibroblast formation result was “diminish myofibroblast formation”.
